In US5447957A, “Anti-inflammatory compounds” (SmithKline Beecham Corp., priority 1994, dated 1995):
Where two headings read alike, the source gives them in different places.

Legend:
CoA-IT = test: Assay (b): CoA-IT activity in U937 cell microsomes; type: biochemical, human; details: for inhibition of CoA-IT activity in the microsomal CoA-IT assay: generally at 50 μM or less
Excerpt: Assay (b): CoA-IT Activity
The following is a method to measure CoA-IT activity and the effects of compounds on CoA-IT activity. The assay is based upon mixing cellular material containing CoA-IT activity with a stable lyso phospholipid such as […] and measuring the production of phospholipid product such as […] occurring in the absence of added CoA or CoA-fatty acids.
Any inflammatory cell that contains high levels of CoA-IT activity can be used, such as neutrophils, macrophages or cell lines such as U937 cells. […] Cells were grown without differentiation (basal state) by any agent, such as dimethyl sulfoxide. As used herein, "inflammatory cells" include, but are not limited to neutrophils, macrophages, monocytes, lymphocytes, eosinophils, basophils, and mast cells.
Microsomes were prepared using standard techniques. In this case, cells were washed with a buffer of 250 mM sucrose, 10 mM Tris, 1 mM EGTA, 1 mM MgCl2, pH 7.4 and ruptured by N2 cavitation (750 psi, 10 minutes). The ruptured cells were centrifuged 1000× g, 5 minutes. The resulting supernatant was centrifuged at 20,000×g,~20 minutes. Microsomes were prepared from this supernatant by centrifugation at 100,000× g, 60 minutes. The resulting pellet was washed once with assay buffer (150 mM NaCl, 10 mM Na2 KPO4, 1 mM EGTA, pH 7.4), recentrifuged and the pellet resuspended in assay buffer (4-20 mg protein/ml) and was stored at -80° C. until assayed.
CoA-IT activity was measured in 1.5 ml centrifuge tubes in a total volume of 100 ul. Microsomes were diluted in assay buffer to the desired protein concentration (6-20 ug/tube). The reaction was initiated by addition of [3H] 1-alkyl-2-lyso-sn-glycero-3-phosphocholine (GPC)(~0.1 uCi/tube) and 1 μM final cold 1-alkyl-2-lyso-GPC in assay buffer with 0.25 mg/ml fatty acid-poor bovine serumalbumin (BSA) (Calbiochem, La Jolla, Calif.). [3H]1-alkyl-2-lyso-GPC, approximately 50 Ci/mmol, was from NEN-Dupont (Boston, Mass.) and cold 1-alkyl-2-lyso-GPC was from Biomol (Plymouth Meeting, Penn.). Microsomes were pretreated with desired agents for the desired time (10 minutes) before the addition of [3H]1-alkyl-2-lyso-GPC. The reaction was run for the desired time (10 minutes) at 37° C. The reaction was stopped and the lipids extracted by addition of 100 ul of chloroform:methanol (1:2, v/v) followed by 100 ul of chloroform and 100 ul of 1M KCI. The samples were vortexed and centrifuged at high speed in a microfuge for 2-3 minutes. An aliquot of the chloroform-extracted materials were separated, usually by TLC in chloroform/methanol/acetic acid/water (50:25:8:4, v/v), visualized by radioscanning (Bioscan) and the product, [3H] 1-alkyl-2-acyl-GPC, was scraped and quantified by liquid scintillation spectroscopy. […] Other methods can be used to separate substrate from product, including but not limited to column chromatography, affinity chromatography and post reaction derivitization.

human monocytes = test: Assay (f): stimulated eicosanoid (PGE2, LTC4) release by human monocytes; type: cell-based; details: Monocyte, 0.25 h, A23187 1 μM, 15 min
Method: Assay (f): Measurement of stimulated eicosanoid release by human monocytes.
Leukocyte-rich leukopaks obtained from Biological Specialties (Lansdale, Pa.) were collected from male volunteers who were not taking anti-inflammatory drugs. Leukopaks were centrifuged (90× g for 15 min) twice to remove the platelet-rich plasma. The cell pellet was washed by centrifugation and resuspended in HBSS without Ca^2+ or Mg^2+. Histopaque 1077 was layered under the cell suspension and centrifuged at 400× g for 30 min to obtain the buffy coat. The interfacial buffy coat, containing monocytes and lymphocytes, was removed and saved. The buffy coat was washed twice with HBSS without Ca^2+ or Mg^2+ by centrifugation. The cell pellet (4-6×10^8 cells/30 mls) was resuspended in iso-osmotic media (RPMI-1640, 10% heat inactivated fetal bovine serum (FBS), 0.2 mM L-glutamine, 2.5 mM HEPES) and layered over an equal volume of 46% Percol mixture (10X PBS/Percol; 9.25/0.75) and 54% iso-osmotic media and centrifuged for 30 min at 1000× g (Marshall and Roshak, Biochem. Cell Biol. 71: 331-339, 1993). The monocyte population located at the interface of the Percoll gradient was removed and washed twice in HBSS without Ca^2+ or Mg^2+.
Monocytes (5×10^6 /ml) were incubated as a suspension in serum-free RPMI- 1640 medium containing the vehicle DMSO (<1%) or drug for 30 min at […] after which vehicle or stimuli was added for the indicated time. The stimulating agent is solubilized in DMSO and appropriate vehicle controls were included in all experiments. The amount of stimuli was chosen from the linear portion of a concentration versus product curve usually representing 60-80% maximal stimulation over the indicated incubation time at 37° C. (A23187, 1 μM,(15 min). The reaction was terminated by reduction of pH through addition of citric acid and centrifugation (10 min, 400× g, 4° C.). Cell viability was monitored before and after experiments using trypan blue exclusion. The cell-free media was decanted and stored at -70° C. until analyzed. Prostaglandin E2 and LTC4 were directly measured in cell-free media using enzyme immunoassay (EIA) kits purchased from Caymen Chemical Co. (Ann Arbor, Mich.). Sample or standard dilutions were made with appropriate media and analyzed in triplicate. Results were obtained by extrapolation from a standard curve prepared in the media and expressed as pg or ng/ml of sample.

[1] = test system: TPA-induced Mouse Ear Inflammation; test: Assay (g): TPA-induced Mouse Ear Inflammation (ear edema and MPO); type: in vivo; details: topical; doses dexamethasone 0.2, scalaradial 0.1, WY 50,295 0.3 (unit not given)
Excerpt: The ability of compounds that inhibit CoA-IT and/or PLA2 to affect in vivo inflammatory responses may be assessed. Inflammatory responses are induced in the mouse ear by the topical application of a pro-inflammatory agent, such as 12-0-tetradecanoylphorbol 13-acetate (assay g). This produces an edematous response, as measured by increases in ear thickness, as well as increased inflammatory cellular infiltrate, as measured by increases in myeloperoxidase activity (as described in the methods). To further validate the mechanism of action inflammation induced by the direct adminstration of arachidonic acid can be used. In this case compounds altering arachidonic acid mobilization or liberation should be with our effect.
(§1) Male Balb/c inbred mice were obtained from Charle River Breeding Laboratories (Kingston, N.Y.). Within a single experiment mice (22-25 g) were age-matched. These in vivo experiments typically involved use of 5-6 animals/group.
TPA (12-0-tetradecanoylphorbol 13-acetate) (Sigma Chemical Company) in acetone ([…]) was applied to the inner and outer surfaces of the left ear of BALB/c male mice. The thickness of both ears was then measured with a dial micrometer (Mitutoyo, Japan) at both 2 and 4 hours after treatment, and the data expressed as the change in thickness (10^-3 cm) between treated and untreated ears. […] After measuring the edema, the inflammed left ears were removed and stored at -70° C. until they were assayed for MPO (myeloperoxidase) activity where appropriate.
(§2) On the day of the assay, partially thawed ear tissues were minced and then homogenized (10% w/v) with a Tissumizer homogenizer (Tekmar Co.) in 50 mM phosphate buffer (pH 6) containing 0.5% HTAB. The tissue homogenates were taken through three cycles of freeze-thaw, followed by brief sonication (10 sec). The method of Bradley et al. was used with modifications as described. The appearance of a colored product from the MPO-dependent reaction of o-dianisidine (0.167 mg/ml; Sigma) and hydrogen peroxide (0.0005%; Sigma) was measured spectrophotometrically at 460 nm. Supernatant MPO activity was quantified kinetically (change in absorbance measured over 3 min, sampled at 15-sec intervals) using a Beckman DU-7 spectrophotometer and a Kinetics Analysis package (Beckman Instruments, Inc.). One unit of MPO activity is defined as that degrading one micromole of peroxide per minute at 25° C.
Statistical analysis was done using Student's "t" test. The ED50 are values which cause a 50% inhibition of the inflammatory response and are calculated by regression analysis of the dose response data.

[2] = test system: Arachidonic acid induced ear inflammation; test: Assay (h): Arachidonic acid induced ear inflammation (ear edema and MPO); type: in vivo, mouse; details: topical; doses dexamethasone 0.2, scalaradial 0.1, WY 50,295 0.3 (unit not given)
Method: as §1
as §2, with “The appearance of a colored product from the MPO-dependent reaction of o-dianisidine (0.167 mg/ml; Sigma) and hydrogen peroxide (0.0005%; Sigma) was measured spectrophotometrically at 460 nm.” left out
Arachidonic acid is dissolved in acetone (1 mg/ear) to the left ear of BALB/c male mice. The thickness of both ears was measured with a constant pressure thickness guage 1 hour after treatment and the data expressed as the change in thickness between treated and untreated ears. Test compounds or vehicle are given at the time of AA applciation. The inflammatory cell infiltration is measured by MPO activity as described above in the TPA ear edema assay. After the edema measurements are made, the inflamed ears are removed and assayed for MPO activity.

CCCCCCCCNC(=O)Nc1cc(C(F)(F)F)ccc1Oc1ccccc1C(=O)O [2-[2-[3-(Octyl)ureido]-4-trifluoromethylphenoxy]benzoic acid]
inhibition of CoA-IT activity in the microsomal CoA-IT assay (CoA-IT): inhibit CoA-IT activity

O=S1(=O)CCn2c1nc(-c1ccc(F)cc1)c2-c1ccncc1 [6-(4'-Fluorophenyl)-5-(4-pyridyl)2,3-dihydroimidzo-[2,1-b]thiazole-dioxide]
effect on CoA-IT activity (CoA-IT; at concentrations up to 100 μM): no effect

Fc1ccc(-c2nc3n(c2-c2ccncc2)CCS3)cc1 [6-(4'-Fluorophenyl)-5-(4-pyridyl)-2,3-dihydroimidzo-[2,1-b]thiazole]
effect on CoA-IT activity (CoA-IT; at concentrations up to 100 μM): no effect

Cc1cc(C(C)(C)C)c(O)c(C(C)(C)C)c1 [BHT]
effect on CoA-IT activity (CoA-IT; at concentrations up to 100 μM): no effect

CN(C)CCC=C1c2ccccc2COc2ccccc21 [Doxepine]
effect on CoA-IT activity (CoA-IT; at concentrations up to 100 μM): did not inhibit

O=C(Nc1ccc(Br)cc1)Nc1cc(C(F)(F)F)ccc1Oc1ccccc1C(=O)O [Example 1, 2-[2-[3-(4-Bromophenyl)ureido]-4-(trifluoromethyl)phenoxy]benzoic acid]
inhibition of CoA-IT activity in the microsomal CoA-IT assay (CoA-IT): inhibit CoA-IT activity | IC50 (human monocytes; read-out: IC50 for LTC4 release): 300 nM | IC50 (human monocytes; read-out: IC50 of PGE2 release): > 3000 nM

CC(C)(C)CC(C)(C)c1ccc(Oc2ccc(C(F)(F)F)cc2NC(=O)Nc2cc(C(F)(F)F)cc(C(F)(F)F)c2)c(C(=O)O)c1 [Example 4, 2-[2-[3-[3,5-Bis (trifluoromethyl)phenyl]ureido]-4-trifluoromethylphenoxy]-5-(1,1,3,3-tetramethylbutyl)benzoic acid]
inhibition of CoA-IT activity in the microsomal CoA-IT assay (CoA-IT): inhibit CoA-IT activity

CCC(C)(C)c1ccc(Oc2ccc(C(F)(F)F)cc2NC(=O)Nc2cc(C(F)(F)F)cc(C(F)(F)F)c2)c(C(=O)O)c1 [Example 5, 2-[2-[3-[3,5-Bis (trifluoromethyl)phenyl]ureido]-4-trifluoromethylphenoxy]-5-(1,1,-dimethylpropyl)benzoic acid]
inhibition of CoA-IT activity in the microsomal CoA-IT assay (CoA-IT): inhibit CoA-IT activity

COC(=O)c1ccccc1Oc1ccc(C(F)(F)F)cc1NC(=O)Nc1cc(C(F)(F)F)cc(C(F)(F)F)c1 [Example 8, Methyl 2-[2-[3-[3,5-Bis(trifluoromethyl)phenyl]ureido]-4-trifluoromethylphenoxy]benzoate]
inhibition of CoA-IT activity in the microsomal CoA-IT assay (CoA-IT): inhibit CoA-IT activity

C[C@H](C(=O)O)c1ccc2cc(OCc3ccc4ccccc4n3)ccc2c1 [WY 50,295]
TPA % change in edema [1]: -18% | AA % change in edema [2]: -50% | change in MPO for AA [2]: -90

COc1cccc2c1cc([N+](=O)[O-])c1c(C(=O)O)cc3c(c12)OCO3 [aristolochic acid]
effect on CoA-IT activity (CoA-IT; at concentrations up to 500 μM): no effect

C[C@@H]1C[C@H]2[C@@H]3CCC4=CC(=O)C=C[C@]4(C)[C@@]3(F)[C@@H](O)C[C@]2(C)[C@@]1(O)C(=O)CO [dexamethasone]
TPA % change in edema [1]: -50% | change in MPO for TPA model [1]: -54 | AA % change in edema [2]: -10% | change in MPO for AA [2]: 0

COc1ccc2c(c1)c(CC(=O)O)c(C)n2C(=O)c1ccc(Cl)cc1 [indomethicin]
effect on CoA-IT activity (CoA-IT; at concentrations up to 100 μM): no effect

COc1ccc2cc([C@H](C)C(=O)O)ccc2c1 [naproxen]
effect on CoA-IT activity (CoA-IT; at concentrations up to 100 μM): no effect

CCN(CC)CCCC(C)Nc1c2ccc(Cl)cc2nc2ccc(OC)cc12 (centres unmarked) [quinacrine]
effect on CoA-IT activity (CoA-IT; at concentrations up to 500 μM): no effect

CC(=O)O[C@H]1C[C@@H]2[C@@]3(C)CCCC(C)(C)[C@@H]3CC[C@@]2(C)[C@@H]2CC=C(C=O)[C@H](C=O)[C@@]12C [scalaradial]
AA % change in edema [2]: -11%
